Results as given in patent US9850225B2, “Compounds useful as immunomodulators” (BRISTOL-MYERS SQUIBB COMPANY, priority 2014, dated 2017).
pIC50: −log10 of the molar value.

target: PD-1/PD-L1 interaction (PD-1-Ig / PD-L1-His) (Homo sapiens (Human), UniProt Q9NZQ7); assay: PD-1/PD-L1 Homogenous Time-Resolved Fluorescence (HTRF) binding assay; settings: PD-1/PD-L1 HTRF binding assay; value given as range class; read-out: Range or IC50
How it was run: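 Human PD-L1-His (10 nM final) was pre-incubated with inhibitor for 15 min, then PD-1-Ig (20 nM final) was added for a further 15 min in dPBS with 0.1% BSA and 0.05% Tween-20. Binding was detected by HTRF using Eu-cryptate anti-Ig (1 nM) and APC anti-His (20 nM).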

Sequence of PD-1/PD-L1 interaction (PD-1-Ig / PD-L1-His) (Q9NZQ7 other isoform, or with tags, fused parts or gaps): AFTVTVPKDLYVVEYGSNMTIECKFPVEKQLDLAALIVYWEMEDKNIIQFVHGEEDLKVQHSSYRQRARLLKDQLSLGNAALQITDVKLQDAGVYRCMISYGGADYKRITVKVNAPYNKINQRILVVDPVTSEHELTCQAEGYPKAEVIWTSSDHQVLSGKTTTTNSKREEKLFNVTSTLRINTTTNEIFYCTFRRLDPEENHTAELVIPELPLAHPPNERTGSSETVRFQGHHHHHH

Row | pIC50 | Structure (SMILES)
1 | 8.00 to 9.22 | Cc1c(COc2cc(OCc3cncc(S(C)(=O)=O)c3)c(CN[C@@](C)(CO)C(=O)O)cc2Cl)cccc1-c1ccc2c(c1)OCCO2 [Example 3012, (S)-2-((5-chloro-4-((3-(2,3-dihydrobenzo[b][1,4]dioxin-6-yl)-2-methylbenzyl)oxy)-2-((5-(methylsulfonyl)pyridin-3-yl)methoxy)benzyl)amino)-3-hydroxy-2-methylpropanoic acid]
2 | 4.70 to 7.00 | CC(=O)NCCNCc1ccc(OCc2cccc(-c3ccccc3)c2C)cc1OCc1ccc(C(C)(C)C)cc1 [Example 1046, N-(2-((2-((4-(tert-butyl)benzyl)oxy)-4-((2-methyl-[1,1′-biphenyl]-3-yl)methoxy)benzyl)amino)ethyl)acetamide]
3 | 4.70 to 7.00 | CC(=O)NCCNCc1ccc(OCc2cccc(-c3ccccc3)c2C)cc1OCc1cccc2ccccc12 [Example 1063, N-(2-((4-((2-methyl-[1,1′-biphenyl]-3-yl)methoxy)-2-(naphthalen-1-ylmethoxy)benzyl)amino)ethyl)acetamide]
4 | 4.70 to 7.00 | CC(=O)NCCNCc1ccc(OCc2cccc(-c3ccccc3)c2C)cc1OCc1cccc(C(F)(F)F)c1 [Example 1051, N-(2-((4-((2-methyl-[1,1′-biphenyl]-3-yl)methoxy)-2-((3-(trifluoromethyl)benzyl)oxy)benzyl)amino)ethyl)acetamide]
5 | 8.00 to 9.22 | Cc1c(COc2cc(OCc3cccc(C#N)c3)c(CNC(CO)(C(=O)O)C(C)C)cc2Cl)cccc1-c1ccc2c(c1)OCCO2 (centres unmarked) [Example 1214, 2-((5-chloro-2-((3-cyanobenzyl)oxy)-4-((3-(2,3-dihydrobenzo[b][1,4]dioxin-6-yl)-2-methylbenzyl)oxy)benzyl)amino)-2-(hydroxymethyl)-3-methylbutanoic acid]
6 | 4.70 to 7.00 | CC(=O)NCCNCc1ccc(OCc2cccc(-c3ccccc3)c2C)cc1OCCc1ccccc1 [Example 1033, N-(2-((4-((2-methyl-[1,1′-biphenyl]-3-yl)methoxy)-2-phenethoxybenzyl)amino)ethyl)acetamide]
7 | 4.70 to 7.00 | CC(=O)NCCNCc1ccc(OCc2cccc(-c3ccccc3)c2C)cc1OCc1ccccc1 [Example 1024, N-(2-((2-(benzyloxy)-4-((2-methyl-[1,1′-biphenyl]-3-yl)methoxy)benzyl)amino)ethyl)acetamide]
8 | 8.00 to 9.22 | Cc1cc(CN[C@](C)(CO)C(=O)O)c(OCc2ccc(F)c(C#N)c2)cc1OCc1cccc(-c2ccc3c(c2)OCCO3)c1C [Example 1273, (R)-2-((2-((3-cyano-4-fluorobenzyl)oxy)-4-((3-(2,3-dihydrobenzo[b][1,4]dioxin-6-yl)-2-methylbenzyl)oxy)-5-methylbenzyl)amino)-3-hydroxy-2-methylpropanoic acid]
9 | 7.00 to 8.00 | Cc1c(COc2cc(OCc3cccc(C#N)c3)c(CNC3(C(=O)O)COC3)cc2Cl)cccc1-c1ccc2c(c1)OCCO2 [Example 1243, 3-((5-chloro-2-((3-cyanobenzyl)oxy)-4-((3-(2,3-dihydrobenzo[b][1,4]dioxin-6-yl)-2-methylbenzyl)oxy)benzyl)amino)oxetane-3-carboxylic acid]
10 | 8.00 to 9.22 | COc1cc(OCc2cccc(-c3ccc4c(c3)OCCO4)c2C)cc(OCc2cccc(C#N)c2)c1CN[C@@](C)(CO)C(=O)O [Example 1142, (S)-2-((2-((3-cyanobenzyl)oxy)-4-((3-(2,3-dihydrobenzo[b][1,4]dioxin-6-yl)-2-methylbenzyl)oxy)-6-methoxybenzyl)amino)-3-hydroxy-2-methylpropanoic acid]
11 | 4.70 to 7.00 | CC(=O)NCCNCc1ccc(OCc2cccc(-c3ccccc3)c2C)cc1OCc1cccc(Oc2ccc(F)cc2)c1 [Example 1078, N-(2-((2-((3-(4-fluorophenoxyl)benzyl)oxy)-4-((2-methyl-[1,1′-biphenyl]-3-yl)methoxy)benzyl)amino)ethyl)acetamide]
